Test results reported in patent US20220363667A1 (Nippon Chemiphar Co., Ltd., priority 2018, published 2022).

System: SD rats
Test: Rat formalin test
Format: in vivo
Conditions: po, 30 mg/kg orally once, pain behavior time from 15 to 30 minutes after formalin administration vs vehicle group, read-out: Inhibition ratio (pain behavior inhibition ratio)
Method: 30 mg/kg of a vehicle or a test substance was orally administrated to SD rats once, and according to the method described in McNamara C. R., Mandel-Brehm J., Bautista D. M., Siemens J., Deranian K. L., Zhao M., Hayward N. J., Chong J. A., Julius D., Moran M. M., Fanger C. M.: TRPA1 mediates formalin-induced pain. Proc. Natl. Acad. Sci. U.S.A. 104, 2007, 13525-13530, 50 μL of a 2.0% formalin solution as a pain-inducing substance was subcutaneously administered under the skin of the plantar plate of the right hind limb of each rat.
Regarding the evaluation, the pain behavior inhibition ratio was determined from the pain behavior time of each test substance-administered group with respect to the pain behavior time of the vehicle-administered group for 15 minutes measured from 15 minutes to 30 minutes after the administration.

SMILES | inhibition in vivo at 30 mg/kg
O=C(N[C@@H]1CCN(c2cncc(C(F)(F)F)c2)C1)C1CC1c1cc(Cl)cc(Cl)c1 (single isomer, unassigned) [Example 99A] | < 10%
O=C(N[C@@H]1CCN(c2cncc(C(F)(F)F)c2)C1)C1CC1c1ccc(Br)cc1 (single isomer, unassigned) [Example 100A] | ≥ 20%
O=C(Cc1ccc(C2CC2)cc1)N[C@@H]1CCN(c2cncc(C(F)(F)F)c2)C1 [Example 1, (R)-2-(4-cyclopropylphenyl)-N-(1-(5-(trifluoromethyl)pyridin-3-yl)pyrrolidin-3-yl)acetamide] | ≥ 20%
CC(C)c1ccc(CC(=O)N[C@@H]2CCN(c3cncc(C(F)(F)F)c3)C2)cc1 [Example 4, (R)-2-(4-isopropylphenyl)-N-(1-(5-(trifluoromethyl)pyridin-3-yl)pyrrolidin-3-yl)acetamide] | ≥ 20%
O=C(Cc1ccc(C2CC2)cc1)N[C@H]1CN(c2cncc(C(F)(F)F)c2)C[C@@H]1O [Example 5, 2-(4-Cyclopropylphenyl)-N-((3S,4S)-4-hydroxy-1-(5-(trifluoromethyl)pyridin-3-yl)pyrrolidin-3-yl)acetamide] | ≥ 20%
O=C(Cc1ccc(C2CC2)cc1)N[C@H]1CN(c2nc(C(F)(F)F)cs2)CC12CC2 [Example 8, (R)-2-(4-cyclopropylphenyl)-N-(5-(4-(trifluoromethyl)thiazol-2-yl)-5-azaspiro[2.4]heptan-7-yl)acetamide] | < 10%
O=C(Cc1ccc(C(F)(F)F)cc1)N[C@@H]1CCN(c2cncc(C(F)(F)F)n2)C1 [Example 11, (R)-2-(4-(trifluoromethyl)phenyl)-N-(1-(6-(trifluoromethyl)pyrazin-2-yl)pyrrolidin-3-yl)acetamide] | ≥ 20%
N#Cc1ncc(N2CC[C@@H](NC(=O)Cc3ccc(C4CC4)cc3)C2)cc1C(F)(F)F [Example 12, (R)—N-(1-(6-cyano-5-(trifluoromethyl)pyridin-3-yl)pyrrolidin-3-yl)-2-(4-cyclopropylphenyl)acetamide] | 10 to 20%
O=C(Cc1ccc(N2CCS(=O)(=O)CC2)cc1)N[C@@H]1CCN(c2cncc(C(F)(F)F)c2)C1 [Example 23, (R)-2-(4-(1,1-dioxidethiomorpholino)phenyl)-N-(1-(5-(trifluoromethyl)pyridin-3-yl)pyrrolidin-3-yl)acetamide] | < 10%
N#CC1(NC(=O)Cc2ccc(C3CC3)cc2)CCN(c2cncc(C(F)(F)F)c2)C1 (centres unmarked) [Example 36, N-(3-cyano-1-(5-(trifluoromethyl)pyridin-3-yl)pyrrolidin-3-yl)-2-(4-cyclopropylphenyl)acetamide] | < 10%
COC(=O)C1(NC(=O)Cc2ccc3cc[nH]c3c2)CCN(c2cncc(C(F)(F)F)c2)C1 (centres unmarked) [Example 37, Methyl 3-(2-(1H-indol-6-yl)acetamido)-1-(5-(trifluoromethyl)pyridin-3-yl)pyrrolidine-3-carboxylate] | < 10%
O=C(N[C@@H]1CCN(c2cncc(C(F)(F)F)c2)C1)[C@H]1C[C@@H]1c1nc2ccccc2o1 [Example 39, (1S,2S)-2-(benzo[d]oxazol-2-yl)-N—((R)-1-(5-(trifluoromethyl)pyridin-3-yl)pyrrolidin-3-yl)cyclopropane-1-carboxyamide] | ≥ 20%
O=C(N[C@@H]1CCN(c2cncc(C(F)(F)F)c2)C1)[C@H]1C[C@@H]1c1nc2cc(F)ccc2o1 [Example 49, (1S,2S)-2-(5-fluorobenzo[d]oxazol-2-yl)-N—((R)-1-(5-(trifluoromethyl)pyridin-3-yl)pyrrolidin-3-yl)cyclopropane-1-carboxyamide] | ≥ 20%
O=C(N[C@@H]1CCN(c2ccc(C(F)(F)F)nc2)C1)[C@H]1C[C@@H]1c1nc2ccccc2[nH]1 [Example 54, (1S,2S)-2-(1H-benzo[d]imidazol-2-yl)-N—((R)-1-(6-(trifluoromethyl)pyridin-3-yl)pyrrolidin-3-yl)cyclopropane-1-carboxyamide] | < 10%
